# Assays:
# Format in all cases: in vivo, C57Bl/6 mice
# [1] = tested on: experimental allergic encephalomyelitis (EAE) mice; experiment: Prophylactic intraperitoneal treatment of dapansutrile in EAE mice; settings: 60 mg/kg i.p. twice daily, Day 0 to Day 21
# Experimental: (§1) Active immunization was done in female adult (8 weeks old) C57Bl/6 mice. Briefly, mice were subcutaneously injected with […] of myelin oligodendrocyte glycoprotein (MOG)35-55 peptide ([…], SEQ ID NO: 1) emulsified in complete Freund's Adjuvant (Sigma Aldrich) supplemented with 4 mg of micobacterioum tuberculosis H37RA (DIFCO Laboratories). On day 0 and 2 post-immunization, mice were also injected intraperitoneally (i.p.) with 500 ng of pertussis toxin (List Biological Laboratories).
# Starting on day 0 (day of immunization), mice were injected intraperitoneally twice daily with dapansutrile (OLT1177™, 60 mg/kg) or saline until the end of the study (Day 21). Each treated group had 10 mice.
# Animals were monitored daily for signs of EAE and the scoring system is as follows: 0=no clinical symptoms, normal walking; 0.5=partial paralyzed tail, 1=fully paralyzed tail; 2=mild hind-limb weakness, quick righting reflex; 3=severe hind-limb weakness, slow righting reflex, unable to bear weight; 3.5=severe hind-limb weakness and partial paralysis of hind limb; 4=complete paralysis of at least one hind limbs; 4.5=complete paralysis of one or both one hind limbs and trunk weakness; 5=complete paralysis of one or both hind limbs, forelimb weakness or paralysis; 6=mouse is found dead by EAE. […]
# [2] = tested on: experimental allergic encephalomyelitis (EAE) mice; experiment: Prophylactic oral treatment (dapansutrile-enriched diet) in EAE mice
# Experimental: as §1
# (§2) Animals were monitored daily for signs of EAE and the scoring system is as follows: 0=no clinical symptoms, normal walking; 0.5=partial paralyzed tail, 1=fully paralyzed tail; 2=mild hind-limb weakness, quick righting reflex; 3=severe hind-limb weakness, slow righting reflex, unable to bear weight; 3.5=severe hind-limb weakness and partial paralysis of hind limb; 4=complete paralysis of at least one hind limbs; 4.5=complete paralysis of one or both one hind limbs and trunk weakness; 5=complete paralysis of one or both hind limbs, forelimb weakness or paralysis; 6=mouse is found dead by EAE.
# (§3) EAE mice were euthanized at either day 21 or 23 post-immunization with an overdose of pentobarbital sodium (Dolethal) and transcardially perfused with 4% paraformaldehyde (PFA) in 0.1M phosphate buffer (PB). Lumbar segments of spinal cords were harvested, post-fixed in 4% PFA for 2 hours and cryoprotected in 30% sucrose in 0.1M at 4° C. for at least 48 hours. Spinal cords were embedded in TissueTek OCT (Sakura), cut in transversal sections (15 μm-thick) with a cryostat (Leica) between L3 and L5 segments and serially picked up on gelatine-coated glass slides. Samples were stored at −20° C.
# (§4) Sections were stained with Luxol Fast Blue (LFB) (Sigma Aldrich). Briefly, after a graded dehydration, sections were placed in 1 mg/mL of LFB solution in 96% EtOH and 0.05% acetic acid overnight at 37° C. and protected from light. Then, slides were washed with 96% EtOH, rehydrated in distilled water and placed in a 0.5 mg/mL Li2CO3 solution for 3-5 minutes at room temperature. Finally, sections were washed in distilled water, dehydrated again in 100% EtOH and mounted in DPX (Sigma Aldrich). To assess the demyelinated area in the spinal cord, 6 random images per mice were captured at 10× magnification with an Olympus BX51 and the attached Olympus DP73 Camera. The total demyelinated area within the spinal cord was measured with Image J image analysis software.
# (§5) EAE induction, functional assessment, and histological analysis were the same as those described in Example 2.
# Starting on day 0 (day of immunization), EAE-mice were fed either a dapansutrile-enriched diet or a standard diet. […]
# [3] = tested on: experimental allergic encephalomyelitis (EAE) mice; experiment: Oral gavage treatment with dapansutrile in EAE mice starting at disease onset
# Experimental: as §1, §2, §3, §4, §5
# 60 mg/kg of dapansutrile was solubilized with distilled water and administered daily by oral gavage at 60 mg/kg animal weight to mice twice per day. […] Control mice were administered distilled water at the same days. […]
# [4] = diet with 3.75 g dapansutrile per kg food, Day 0 to Day 23, vs standard diet (FIG. 2B)
# [5] = 60 mg/kg oral gavage twice daily from disease onset, vs vehicle (FIG. 3B)
compound,measurement,setting,value
"CS(=O)(=O)CCC#N [dapansutrile, 3-methanesulfonylpropionitrile]",demyelination in the lumbar spinal cord (LFB staining),[1]; vs saline (FIG. 1B),reduced the demyelination in the spinal cord
same,EAE clinical score,"[1]; vs saline, significant from day 11 to day 21 (FIG. 1A)",significant lower disease scores
same,daily EAE clinical scores after disease onset,"[2]; diet with 3.75 g dapansutrile per kg food (about 50 mg/kg/day), Day 0 to Day 23, vs standard diet (FIG. 2A)",lower daily EAE clinical scores
same,cumulative EAE score,[2]; [4],lower cumulative EAE scores
same,maximum EAE score,[2]; [4],lower maximum EAE scores
same,reduction of demyelination in the spinal cord,"[2]; diet with 3.75 g dapansutrile per kg food, 23 days after immunization, vs standard food (FIG. 2C)",about 2 fold
same,reduction in the EAE score compared to vehicle,[3]; 60 mg/kg oral gavage twice daily from disease onset (FIG. 3A),about 1 point
same,cumulative clinical EAE score,[3]; [5],significantly reduced
same,maximum clinical EAE score,[3]; [5],significantly reduced
same,demyelination in LFB stained spinal cords,"[3]; 60 mg/kg oral gavage twice daily from disease onset, vs vehicle (FIG. 3C)",protection against demyelination

# Reference: patent US10548870B2, “Method for treating multiple sclerosis” (OLATEC THERAPEUTICS LLC, priority 2017, dated 2020)
